{"source": "patent US5998435A", "about": "“Use of a tachykinin antagonist for the manufacture of a medicament for the treatment of emesis” (priority 1998, dated 1999)", "key": {"NK1 receptor [1]": {"target": "T1, NK1 receptor (Meriones unguiculatus, UniProt Q5DUB1)", "T1 construct": "centrally NK1 receptor mediated foot-tapping response was examined in the gerbil; from tissue; host or cells: whole animal (gerbil), central NK1 receptors, i.c.v. agonist", "T1 sequence (Q5DUB1 whole entry)": "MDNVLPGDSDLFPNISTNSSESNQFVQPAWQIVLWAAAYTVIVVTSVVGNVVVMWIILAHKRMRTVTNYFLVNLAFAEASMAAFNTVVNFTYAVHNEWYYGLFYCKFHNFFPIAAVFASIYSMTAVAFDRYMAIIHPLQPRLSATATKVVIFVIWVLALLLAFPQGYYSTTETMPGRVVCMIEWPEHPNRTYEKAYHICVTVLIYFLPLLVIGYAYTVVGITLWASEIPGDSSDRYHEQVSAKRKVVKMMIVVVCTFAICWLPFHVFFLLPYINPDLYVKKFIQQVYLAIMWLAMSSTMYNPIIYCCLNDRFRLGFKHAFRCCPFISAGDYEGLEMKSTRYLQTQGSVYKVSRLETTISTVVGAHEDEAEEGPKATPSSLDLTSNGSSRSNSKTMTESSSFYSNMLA", "conditions": "administered systemically 30 minutes before [Sar9,Met(O2)11]-substance P; cited from earlier work"}, "cisplatin-induced emesis [2]": {"system": "cisplatin-induced emesis", "test": "Cisplatin-induced acute emesis in the ferret", "type": "in vivo", "conditions": "ferret", "from_the_text": "Adult male albino Fitch ferrets (>1 kg weight) were individually housed with free access to food (SDS Diet \"C\", Special Diet Services Ltd, Essex, U.K.). Thirty minutes prior to the commencement of the studies, the ferrets were presented with 100 g of commercially available tinned cat food."}, "NK1 receptor [3]": {"target": "T1, NK1 receptor", "test": "[Sar9,Met(O2)11]substance P-induced hind foot tapping in the gerbil", "type": "in vivo", "experimental": "FIG. 3. […] The duration of foot tapping (sec) was recorded for 5 minutes immediately following recovery of the animals righting reflex.\nGerbils were anaesthetized with isoflurane, and an incision was made to expose the skull. […] Animals were placed individually into observation boxes, and duration of hind foot tapping was recorded for 5 minutes immediately following recovery of the animals' righting reflex."}, "cisplatin-induced emesis [4]": {"system": "cisplatin-induced emesis", "conditions": "cisplatin 5 mg/kg i.p."}, "[5]": {"conditions": "The Compound 10 mg/kg or ondansetron 1 mg/kg i.p. three times a day"}}, "data": [{"smiles": "COc1ccccc1CN[C@H]1CCCN[C@H]1c1ccccc1", "note": "[CP-99,994]", "values": [{"measurement": "inhibition of the foot-tapping response", "setting": "NK1 receptor [1]", "result": "dose-dependentlyinhibit"}]}, {"smiles": "CN(C)CC(=O)OCC(NC(=O)C(C)(Cc1c[nH]c2ccccc12)NC(=O)OCc1cc2ccccc2o1)c1ccccc1", "note": "(stereo not shown) [Compound 2, Dimethylamino-acetic acid 2-[2-(benzofuran-2-ylmethoxycarbonylamino)-3-(1H-indol-3-yl)-2-methyl-propionylamino]-2-phenyl-ethyl ester]", "values": [{"measurement": "block of cisplatin-induced emesis", "setting": "cisplatin-induced emesis [2]", "result": "inability"}, {"measurement": "block of the foot-tapping response, s.c.", "setting": "NK1 receptor [3]; 1-100 mg/kg s.c.", "result": "failed to block"}, {"measurement": "MED, antagonism of foot-tapping response, i.c.v.", "setting": "NK1 receptor [3]; i.c.v. administration", "result": 10, "unit": "μg/animal"}]}, {"smiles": "Cc1nccn1CC1CCc2c(c3ccccc3n2C)C1=O", "note": "(stereo not shown) [ondansetron]", "values": [{"measurement": "delayed emesis during the 3 days (3-72 hours)", "setting": "cisplatin-induced emesis [4]; [5]", "result": "much lower activity"}, {"measurement": "retching and vomiting during the first 3 hours of the emetic response (acute)", "setting": "cisplatin-induced emesis [4]; [5]", "result": "completely blocked"}, {"measurement": "effect during the start of the delayed response (Day 1, 3-24 hours)", "setting": "cisplatin-induced emesis [4]; ondansetron 1 mg/kg i.p. tid", "result": "failed to show any effect"}]}]}
